Blank lines part the entries; values can stand above or below the molecule they belong to. Positions of bridges follow the written chain, without caps; N, C: chain ends. Non-standard residues stand in square brackets, D forms with d. Residues, ends and D or L forms follow the SMILES beside them. *: point of attachment. Ileψ(thiazoline)Cys = CC[C@H](C)[C@H](N)C1=N[C@H](C(=O)*)CS1; Sta = CC(C)C[C@H](N)[C@@H](O)CC(=O)O; dOrn = NCCC[C@@H](N)C(=O)O; Isovaleryl = CC(C)CC(=O)*
Legend:
[1] = test system: endopeptidase from the skin of Xenopus laevis; assay: Inhibitor studies: enzyme preincubated with inhibitor, then cleavage of substrate peptide read on acid gel; type: biochemical; conditions: for % INHIBITION: substrate magainin 2-amide; for effect of proteinase inhibitor on enzyme activity (in words): summary of Table 2
Procedure: Reaction buffer consisted of 20 mM Na phosphate, 50 mM NaCl final concentration. After quenching the reaction with 0.5 volume of glacial acetic acid, a 15 μl aliquot of each reaction was analyzed by acidic gel electrophoresis. […]
Inhibitor studies were conducted in the same fashion; the only difference involved first incubating the enzyme with each inhibitor tested at a particular concentration in the absence of any substrate for one hour at room temperature. Substrate was then added to the reaction and allowed to incubate for an additional hour at room temperature.
ACIDIC GEL ELECTROPHORESIS--Acidic gels (pH 4) were prepared and run as originally described (Gabriel, 1971) with several modifications. The gel solution consisted of a final concentration of 15% (v/v) acrylamide (acrylamide:bisacrylamide/37.5:1), 88 mM KOH, 3% (v/v) glacial acetic acid, 0.75% (v/v) […] (Temed), 0.375% ammonium persulfate (30 mg/ml). Before loading samples, 0.5 volume of glacial acetic acid was added, as well as 0.5 volume of 0.1% Pyronin Y loading dye. MINI PROTEAN gel apparatus (Biorad, Richmond, Calif.) were used and gels electrophoresed at 200 volts in running buffer containing 0.035M β-alanine and glacial acetic acid (2.45 ml/l), pH 4.0. Gels were stained in 0.1% (w/v) Coomassie Brilliant Blue R-250 (Sigma), 50% methanol, 50% water and destained in distilled water.

[2] = test system: endopeptidase from the skin of Xenopus laevis; assay: Substrate specificity analyses: cleavage of peptides and analogues by the purified endopeptidase (acid gel, HPLC/amino acid analysis); type: biochemical; conditions: 50 μg peptide, one hour, room temperature
Procedure: ENZYME ASSAYS--Activity was monitored by incubating 0.1-10 μl of each chromatographic fraction with 50 μg of magainin 2-amide substrate in a total volume of 100 μl for one hour at room temperature. Reaction buffer consisted of 20 mM Na phosphate, 50 mM NaCl final concentration. After quenching the reaction with 0.5 volume of glacial acetic acid, a 15 μl aliquot of each reaction was analyzed by acidic gel electrophoresis. One unit of enzyme activity is defined as the amount of enzyme required to convert 25 μg of magainin 2-amide substrate into half-peptide products under the above conditions.
Substrate specificity analyses were carried out as described above except that 50 μg of each substrate analogue under investigation was substituted for magainin 2-amide in the incubation at the same concentration.
Before loading samples, 0.5 volume of glacial acetic acid was added, as well as 0.5 volume of 0.1% Pyronin Y loading dye. […]
100 μl reactions were injected into a Beckman HPLC System Gold instrument and run on a C18 reversed phase column (4.6×220 mm, Aquapore OD-300, Applied Biosystems, Foster City, Calif.). […] Portions of the resuspended sample were injected into an amino acid analyzer with automated hydrolysis (model 420/130, Applied Biosystems, Foster City, Calif.), and numerical calculations for specific amino acids were determined using an Applied Biosystems 920A data analysis module.

[3] = inhibitor 1 mM, one unit endopeptidase preincubated one hour

Molecule: c1cnc2c(c1)ccc1cccnc12 [1,10-Phenanthroline, 1,10-phenanthroline]
- % INHIBITION ([1]; inhibitor 0.2 mM): 70%
- % INHIBITION ([1]; inhibitor 2 mM): 100%
- % INHIBITION ([1]; inhibitor 20 mM): 100%
- effect of proteinase inhibitor on enzyme activity (in words) [1]: substantially inhibited enzyme activity

Molecule: CC[C@H](C)[C@H](N)C1=N[C@H](C(=O)N[C@@H](CC(C)C)C(=O)N[C@H](CCC(=O)O)C(=O)N[C@H](C(=O)N[C@H]2CCCCNC(=O)[C@H](CC(N)=O)NC(=O)[C@@H](CC(=O)O)NC(=O)[C@H](Cc3cnc[nH]3)NC(=O)[C@@H](Cc3ccccc3)NC(=O)[C@H]([C@@H](C)CC)NC(=O)[C@@H](CCCN)NC2=O)[C@@H](C)CC)CS1 [Bacitracin, bacitracin] ({Ileψ(thiazoline)Cys}-L[dE]IK[dOrn]I[dF]H[dD]N; lactam 4-C)
- % INHIBITION ([1]; inhibitor 1 mg/ml): 0%
- effect of proteinase inhibitor on enzyme activity (in words) [1]: no effect on endoproteolysis

Molecule: CC(C)C[C@H](NC(=O)[C@H]1O[C@@H]1C(=O)O)C(=O)NCCCCN=C(N)N [E-64, N-[N-(L-3-trans-carboxyoxiran-2-carbonyl)-L-leucyl]-agmatine]
- % INHIBITION ([1]; inhibitor 300 μM): 0%
- effect of proteinase inhibitor on enzyme activity (in words) [1]: no effect on enzyme activity

- % INHIBITION ([1]; inhibitor 0.5 mM): 25%
- % INHIBITION ([1]; inhibitor 5 mM): 25%
- % INHIBITION ([1]; inhibitor 50 mM): 50%
- effect of proteinase inhibitor on enzyme activity (in words) [1]: substantially inhibited enzyme activity
Molecule: O=C(O)CN(CCN(CC(=O)O)CC(=O)O)CC(=O)O [EDTA, ethylenediaminetetraacetic acid]

Molecule: CC(=O)N[C@@H](CC(C)C)C(=O)N[C@@H](CC(C)C)C(=O)N[C@H](C=O)CCCNC(=N)N [Leupeptin, leupeptin]
- % INHIBITION [1, 3]: 0%
- effect of proteinase inhibitor on enzyme activity (in words) [1]: no effect on enzyme activity

Molecule: O=S(=O)(F)Cc1ccccc1 [PMSF, phenylmethanesulfonyl fluoride]
- % INHIBITION ([1]; inhibitor 10 mM): 0%
- effect of proteinase inhibitor on enzyme activity (in words) [1]: no effect on enzyme activity

- % INHIBITION ([1]; inhibitor 100 μm, one unit endopeptidase preincubated one hour): 0%
- effect of proteinase inhibitor on enzyme activity (in words) [1]: no effect on enzyme activity
Molecule: CC(C)CC(=O)N[C@H](C(=O)N[C@H](C(=O)N[C@@H](CC(C)C)[C@@H](O)CC(=O)N[C@@H](C)C(=O)N[C@@H](CC(C)C)[C@@H](O)CC(=O)O)C(C)C)C(C)C [Pepstatin, pepstatin] (Isovaleryl-VV[Sta]A[Sta]-OH)

- % INHIBITION ([1]; inhibitor 1 μM): 0%
- % INHIBITION ([1]; inhibitor 100 μM): 0%
- effect of proteinase inhibitor on enzyme activity (in words) [1]: no effect on endoproteolysis
Molecule: CC(C)C[C@H](NP(=O)(O)O[C@@H]1O[C@@H](C)[C@H](O)[C@@H](O)[C@H]1O)C(=O)N[C@@H](Cc1c[nH]c2ccccc12)C(=O)O [Phosphoramidon, phosphoramidon]

Molecule: CC[C@H](C)[C@H](NC(=O)CN)C(=O)NCC(=O)N[C@@H](C)C(=O)N[C@H](C(=O)N[C@@H](CC(C)C)C(=O)N[C@@H](CCCCN)C(=O)N[C@H](C(=O)N[C@@H](CC(C)C)C(=O)N[C@H](C(=O)N[C@H](C(=O)NCC(=O)N[C@@H](CC(C)C)C(=O)N1CCC[C@H]1C(=O)N[C@@H](C)C(=O)N[C@@H](CC(C)C)C(=O)N[C@H](C(=O)N[C@@H](CO)C(=O)N[C@@H](Cc1c[nH]c2ccccc12)C(=O)N[C@H](C(=O)N[C@@H](CCCCN)C(=O)N[C@@H](CCCNC(=N)N)C(=O)N[C@@H](CCCCN)C(=O)N[C@@H](CCCNC(=N)N)C(=O)N[C@@H](CCC(N)=O)C(=O)N[C@@H](CCC(N)=O)C(N)=O)[C@@H](C)CC)[C@@H](C)CC)[C@@H](C)O)[C@@H](C)O)C(C)C)C(C)C [melittin]
- inhibition of cleavage of magainin 2 ([1]; preincubation with tenfold molar excess of peptide, substrate magainin 2): approximately 25%
- cleavage of the peptide by the endopeptidase (in words) [2]: do not serve as substrates

Molecule: K11R: magainin 1 analogue constituting the replacement of all lysines with arginines
- cleavage of the peptide by the endopeptidase (in words) [2]: effectively served as a substrate

Molecule: tosyl-L-phenylalanine chloromethyl ketone [TPCK]
- % INHIBITION [1, 3]: 0%
- effect of proteinase inhibitor on enzyme activity (in words) [1]: no effect on enzyme activity

— patent publication US5518912A, “Endopeptidase” (priority 1993, dated 1996)
